Test results: patent publication US4151291A, “Ethers of 7-hydroxy-coumarin useful as medicaments” (Unicler, priority 1976, dated 1979)

Legend:
oral LD50 = conditions: in vivo
Experimental: In addition the oral LD50 was determined for the compounds of the invention.

[1] = tested on: pain syndrome provoked in mice by injection of phenylbenzoquinone; assay: analgesia test of Siegmund, Cadmus and Lu (phenylbenzoquinone-induced pain syndrome); type: in vivo, mice of Swiss strain; conditions: oral, 30 minutes before phenylbenzoquinone, extensions counted over 10 minutes vs control
Experimental: They have in particular been submitted to the test of analgesia of Siegmund, Cadmus and Lu (Proc. Soc. Exp. Biol. Med. 95, 729, 1957) according to which a characteristic pain syndrome is provoked in mice by injection of phenylbenzoquinone.
The animals used are mice of Swiss strain weighing 20±2 grams.
The animals are separated into groups of 10, randomly but are individually submitted to experiments. Each experiment is carried out on at least two groups:
a control group receiving solvent and phenylbenzoquinone
a group treated with test compound.
The test compounds are administered orally, 30 minutes before the injection of the irritant. Each mouse then receives intraperitoneally 0.25 ml of a 0.02% phenylbenzoquinone solution.
The pain syndrome generated by the injection of phenylbenzoquinone consists of extension of the abdomen and the back legs; at the height of the reaction, the flanks of the animal are very contracted. 5 Minutes after the injection of the irritant, the extensions are counted over a period of 10 minutes.
For each group, the mean number of extensions is calculated. The activity (A) of the test compound is determined by comparison between the mean number of extensions in the treated animals (N) and the mean number of extensions in the control animals (N') according to the equation [formula]
The statistical significance of the result thus obtained is evaluated by the non-parametric test of Fisher.

C#CCOc1ccc2c(-c3ccccc3[N+](=O)[O-])cc(=O)oc2c1 [JB 5, 4-o-nitrophenyl-7-propargyloxy-coumarin]
LD50 (oral LD50): > 2000 mg/kg
Analgesic Activity A ([1]; dose 200 mg/kg): 40%

C#CCOc1ccc2c(C)cc(=O)oc2c1 [JB 2, 4-Methyl-7-propargyloxy-coumarin]
LD50 (oral LD50): 1500 mg/kg
Analgesic Activity A ([1]; dose 150 mg/kg): 98%

Cc1cc(=O)oc2cc(OCC#CCN3CCOCC3)ccc12 [JB 12, 4-Methyl-7-(4-morpholino-but-2-ynyloxy)-coumarin]
LD50 (oral LD50): 1500 mg/kg
Analgesic Activity A ([1]; dose 150 mg/kg): 88%

C#CCOc1ccc2c(C)c(CC=C)c(=O)oc2c1 [JB 19, 3-Allyl-4-methyl-7-propargyloxy-coumarin]
LD50 (oral LD50): 1500 mg/kg
Analgesic Activity A ([1]; dose 150 mg/kg): 81%

Cc1cc(=O)oc2cc(OCC#CCN(C)C)ccc12 [JB 16, 4-Methyl-7-(4-dimethylamino-but-2-ynyloxy)-coumarin]
LD50 (oral LD50): 500 mg/kg
Analgesic Activity A ([1]; dose 50 mg/kg): 30%

C#CCOc1ccc2ccc(=O)oc2c1 [JB 1, 7-Propargyloxy-coumarin]
LD50 (oral LD50): 1500 mg/kg
Analgesic Activity A ([1]; dose 150 mg/kg): 55%

C#CCOc1ccc2c(C)c(CC)c(=O)oc2c1 [JB 4, 3-Ethyl-4-methyl-7-propargyloxy-coumarin]
LD50 (oral LD50): 1000 mg/kg
Analgesic Activity A ([1]; dose 100 mg/kg): 65%
